This is an account of results in the NIST ThermoML archive (doi:10.1021/acs.jced.8b00566).

± gives the expanded uncertainty stated by the source.

The conditions of data set [1]: Crystal; DSC.
The nature of data set [2]: Molar enthalpy of transition or fusion. Particulars: Crystal; DSC.

As to `CC(=O)O[C@H]1CC[C@@]2(C)C(=CC[C@@H]3[C@@H]2CC[C@]2(C)C(c4cccnc4)=CC[C@@H]32)C1` [abiraterone acetate], in data set [1], the Triple point temperature turned out to be 419.3 ± 0.8 K. The “Molar enthalpy of transition or fusion” value in data set [2] was determined as 6.17 ± 0.239 kcal/mol.

Consider `C[C@]12CC[C@H](O)CC1=CC[C@@H]1[C@@H]2CC[C@]2(C)C(c3cccnc3)=CC[C@@H]12` [abiraterone], for which the Triple point temperature in data set [1] is listed as 501.4 ± 0.8 K. Further, the “Molar enthalpy of transition or fusion” value in data set [2] was 10.8 ± 0.287 kcal/mol.
